Assay [1] addresses T1, N-terminal GST-tagged recombinant human Flt3, residues 564-end (Homo sapiens, UniProt P36888).
T1 construct: recombinant human Flt3, residues 564-end; GST (N); purchased Upstate USA Inc, 706 Forest Street, Charlottesville, Va
T1 sequence (P36888 564-993 limits assumed): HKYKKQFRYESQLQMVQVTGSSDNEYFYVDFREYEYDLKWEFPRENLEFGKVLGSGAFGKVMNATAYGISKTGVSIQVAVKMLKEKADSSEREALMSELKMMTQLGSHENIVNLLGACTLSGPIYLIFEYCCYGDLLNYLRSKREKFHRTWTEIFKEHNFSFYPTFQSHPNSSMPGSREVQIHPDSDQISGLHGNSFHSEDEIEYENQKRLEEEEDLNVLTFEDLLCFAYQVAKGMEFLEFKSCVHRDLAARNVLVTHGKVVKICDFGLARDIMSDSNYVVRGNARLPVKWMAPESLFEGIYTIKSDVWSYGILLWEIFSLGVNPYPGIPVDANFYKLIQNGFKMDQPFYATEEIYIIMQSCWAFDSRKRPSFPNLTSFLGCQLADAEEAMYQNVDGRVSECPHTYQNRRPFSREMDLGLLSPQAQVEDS
Nature of the assay: Flt3 kinase inhibition assay (33P-ATP filter assay). Type of assay: biochemical. The settings on record: 40 minutes at room temperature. Summed up: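 Serial compound dilutions incubated 40 min at room temperature with 5-10 mU Flt3 kinase, 50 μM peptide substrate and [γ-33P]ATP/10 mM magnesium acetate, pH 7.0. Phosphoric acid stop, filter capture and scintillation counting; activity compared with uninhibited reactions.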

Assay [2] deals with T2, N-terminal His6-tagged recombinant human KDR, residues 790-end (Homo sapiens, UniProt P35968).
T2 construct: recombinant human KDR, residues 790-end; His6 (N); purchased Upstate USA Inc, 706 Forest Street, Charlottesville, Va
Nature of the assay: KDR kinase inhibition assay (33P-ATP filter assay). Format: biochemical. The method in brief: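 His6-tagged human KDR (residues 790-end, 5-10 mU) with 0.33 mg/mL myelin basic protein in 8 mM MOPS pH 7.0, 0.2 mM EDTA, 10 mM magnesium acetate and [γ-33P]ATP; 40 min at room temperature. Stopped with phosphoric acid, filter-bound 33P counted; inhibition relative to no-inhibitor controls.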

The subject of assay [3] is HCT116 cells. Put plainly: Whole cell cytotoxicity assay, Sulforhodamine B. Type of assay: cell-based. The settings on record: Homo sapiens, HCT-116, HCT116, 96 hours incubation, SRB; for IC50: read-out: IC50 values in this assay (HCT116 cell growth); for GI50: read-out: GI50 HCT116 cell growth. Summed up: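 HCT116 cells (500/well) in DMEM/10% FBS/2 mM glutamine were preincubated 24 h, then exposed to compound for 96 h at 37 °C, 5% CO2, in duplicate. Cells were fixed with TCA and stained with sulforhodamine B (A570). GI50, TGI and LC50 were derived relative to a time-zero plate and an untreated control.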

Setting [4] is: group with IC50 greater than 100 nM.

T2 sequence (P35968 790-1356 limits assumed): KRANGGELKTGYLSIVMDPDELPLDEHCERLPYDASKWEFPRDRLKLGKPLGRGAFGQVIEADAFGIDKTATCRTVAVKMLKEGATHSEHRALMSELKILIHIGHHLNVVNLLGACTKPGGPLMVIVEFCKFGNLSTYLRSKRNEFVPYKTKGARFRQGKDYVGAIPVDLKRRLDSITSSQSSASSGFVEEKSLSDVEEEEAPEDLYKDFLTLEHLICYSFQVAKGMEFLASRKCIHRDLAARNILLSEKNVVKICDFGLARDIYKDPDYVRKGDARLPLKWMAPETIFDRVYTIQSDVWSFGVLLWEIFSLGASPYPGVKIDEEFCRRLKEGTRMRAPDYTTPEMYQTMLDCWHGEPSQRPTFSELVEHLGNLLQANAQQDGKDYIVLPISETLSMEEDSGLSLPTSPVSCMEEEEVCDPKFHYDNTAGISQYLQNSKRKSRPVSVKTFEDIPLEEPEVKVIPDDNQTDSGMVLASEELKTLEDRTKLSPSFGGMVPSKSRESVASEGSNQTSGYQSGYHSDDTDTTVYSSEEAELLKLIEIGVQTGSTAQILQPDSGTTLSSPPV

Consider `Cc1cc(Nc2cc(NC3CCOCC3)nc(-c3cc4ccccc4n3C)n2)n[nH]1` [Compound 7, N^4-(tetrahydro-2H-pyran-4-yl)-2-(1-methyl-1H-indol-2-yl)-N^6-(5-methyl-1H-pyrazol-3-yl)pyrimidine-4,6-diamine], for which the figures for the IC50 in assay [1], in assay [2] (setting [4]) and in assay [3] were no more than 0.1 µM, no more than 1 µM and 1 to 10 µM, respectively.

With `Cc1cc(Nc2cc(N(C)CCN(C)C)nc(-c3ccccc3)n2)n[nH]1` [Compound 9, N^4-(2-(dimethylamino)ethyl)-N^4-methyl-N^6-(5-methyl-1H-pyrazol-3-yl)-2-phenylpyrimidine-4,6-diamine], the IC50 in assay [1] and in assay [2] (40 minutes at room temperature) was no more than 0.1 µM in each case. Also, the GI50 (as a rule, the concentration giving 50% growth inhibition) in assay [3] was no more than 1 µM.

`Cc1cc(Nc2cc(NCCN3CCOCC3)nc(-c3ccccc3)n2)n[nH]1` [Compound 11, N^4-(5-methyl-1H-pyrazol-3-yl)-N^6-(2-morpholinoethyl)-2-phenylpyrimidine-4,6-diamine]: the IC50 in assay [1] and in assay [2] (40 minutes at room temperature) was no more than 0.1 µM in each case. In assay [3], the GI50 is no more than 1 µM.

Consider `COCCN(C)c1cc(Nc2cc(C)[nH]n2)nc(-c2cc(F)ccc2F)n1` [Example 184, 2-(2,5-difluorophenyl)-N^4-(2-methoxyethyl)-N^4-methyl-N^6-(5-methyl-1H-pyrazol-3-yl)pyrimidine-4,6-diamine], for which the IC50 (as a rule, the point on the concentration scale where inhibition reaches its midpoint) was no more than 0.1 µM in assay [1], no more than 0.1 µM in assay [2] (40 minutes at room temperature) and 1 to 10 µM in assay [3].

As for `Cc1cc(Nc2cc(N3CCN(C)CC3)nc(-c3cccc(F)c3)n2)n[nH]1` [Compound 33, 2-(3-fluorophenyl)-N-(5-methyl-1H-pyrazol-3-yl)-6-(4-methylpiperazin-1-yl)pyrimidin-4-amine], the IC50 in assay [1] and in assay [2] (40 minutes at room temperature) was no more than 0.1 µM in each case. The GI50 in assay [3] is no more than 1 µM.

Regarding `Cc1cc(Nc2cc(N3CCN(C)CC3)nc(-c3ccc(C#N)cc3)n2)n[nH]1` [Example 160, 4-(4-(5-methyl-1H-pyrazol-3-ylamino)-6-(4-methylpiperazin-1-yl)pyrimidin-2-yl)benzonitrile], the results for the IC50 in assay [1] and in assay [2] (setting [4]) were no more than 0.1 µM and no more than 1 µM, respectively. In addition, in assay [3], the GI50 was no more than 1 µM.

For the molecule `Cc1cc(Nc2cc(N3CCN(C)CC3)nc(-c3cccc(OCc4ccccc4)c3)n2)n[nH]1` [Example 188, 2-(3-(benzyloxy)phenyl)-N-(5-methyl-1H-pyrazol-3-yl)-6-(4-methylpiperazin-1-yl)pyrimidin-4-amine], the values for the IC50 in assay [1], in assay [2] (setting [4]) and in assay [3] were no more than 0.1 µM, no more than 1 µM and 1 to 10 µM, respectively.

Consider `Cc1cc(Nc2cc(N3CCC(O)CC3)nc(-c3cc4ccccc4n3C)n2)n[nH]1` [Compound 3, 1-(6-(5-methyl-1H-pyrazol-3-ylamino)-2-(1-methyl-1H-indol-2-yl)pyrimidin-4-yl)piperidin-4-ol], for which the IC50 in assay [1] is no more than 0.1 µM; in assay [2] (40 minutes at room temperature) it was no more than 0.1 µM; in assay [3] it was 1 to 10 µM.

As for `Cc1cc(Nc2cc(N3CCN(C)CC3)nc(-c3cc(F)ccc3C)n2)n[nH]1` [Example 196, 2-(5-fluoro-2-methylphenyl)-N-(5-methyl-1H-pyrazol-3-yl)-6-(4-methylpiperazin-1-yl)pyrimidin-4-amine], the IC50 in assay [1] and in assay [2] (40 minutes at room temperature) was no more than 0.1 µM in each case. Besides, the GI50 in assay [3] is no more than 1 µM.

Regarding `Cc1cc(Nc2cc(NC3CCOCC3)nc(-c3cc(F)ccc3F)n2)n[nH]1` [Example 185, 2-(2,5-difluorophenyl)-N^4-(5-methyl-1H-pyrazol-3-yl)-N^6-(tetrahydro-2H-pyran-4-yl)pyrimidine-4,6-diamine], the figures for the IC50 in assay [1], in assay [2] (40 minutes at room temperature) and in assay [3] were no more than 0.1 µM, no more than 0.1 µM and 1 to 10 µM, respectively.

Turning to `Cc1cc(Nc2cc(NC3CCOCC3)nc(-c3cccc(F)c3)n2)n[nH]1` [Compound 20, 2-(3-fluorophenyl)-N^4-(5-methyl-1H-pyrazol-3-yl)-N^6-(tetrahydro-2H-pyran-4-yl)pyrimidine-4,6-diamine], the IC50 is no more than 0.1 µM in assay [1], no more than 0.1 µM in assay [2] (40 minutes at room temperature) and 1 to 10 µM in assay [3].

As for `Cc1ccc(-c2nc(Nc3cc(C)[nH]n3)cc(N3CCN(C)CC3)n2)cc1` [Compound 38, N-(5-methyl-1H-pyrazol-3-yl)-6-(4-methylpiperazin-1-yl)-2-p-tolylpyrimidin-4-amine], the IC50 in assay [1] and in assay [2] (40 minutes at room temperature) was no more than 0.1 µM in each case. For the same molecule, in assay [3], the GI50 is no more than 1 µM.

On to `Cc1cc(Nc2cc(N3CCN(C)CC3)nc(-c3cccc([N+](=O)[O-])c3)n2)n[nH]1` [Example 162, N-(5-methyl-1H-pyrazol-3-yl)-6-(4-methylpiperazin-1-yl)-2-(3-nitrophenyl)pyrimidin-4-amine], for which the IC50 in assay [1] and in assay [2] (40 minutes at room temperature) was no more than 0.1 µM in each case. For the same molecule, the GI50 in assay [3] is no more than 1 µM.

On to `Cc1cc(Nc2cc(N3CCN(C)CC3)nc(-c3cccc(C#N)c3)n2)n[nH]1` [Example 163, 3-(4-(5-methyl-1H-pyrazol-3-ylamino)-6-(4-methylpiperazin-1-yl)pyrimidin-2-yl)benzonitrile], for which the IC50 in assay [1] and in assay [2] (40 minutes at room temperature) was no more than 0.1 µM throughout. In addition, the GI50 in assay [3] is no more than 1 µM.

On to `Cc1cc(Nc2cc(N3CCN(C)CC3)nc(-c3cccc(-c4ccccc4)c3)n2)n[nH]1` [Compound 16, 2-(biphenyl-3-yl)-N-(5-methyl-1H-pyrazol-3-yl)-6-(4-methylpiperazin-1-yl)pyrimidin-4-amine], for which the IC50 in assay [1] and in assay [2] (40 minutes at room temperature) was no more than 0.1 µM throughout. For the same molecule, the GI50 in assay [3] was no more than 1 µM.

In the case of `Cc1cc(Nc2cc(N3CCN(C)CC3)nc(-c3cccnc3)n2)n[nH]1` [Compound 89, N-(5-methyl-1H-pyrazol-3-yl)-6-(4-methylpiperazin-1-yl)-2-(pyridin-3-yl)pyrimidin-4-amine], the results for the IC50 in assay [1], in assay [2] (setting [4]) and in assay [3] were no more than 0.1 µM, no more than 1 µM and 1 to 10 µM, respectively.

In the case of `Cc1cc(Nc2cc(N3CCN(C)CC3)nc(-c3cccc(C)c3C)n2)n[nH]1` [Example 179, 2-(2,3-dimethylphenyl)-N-(5-methyl-1H-pyrazol-3-yl)-6-(4-methylpiperazin-1-yl)pyrimidin-4-amine], the IC50 in assay [1] and in assay [2] (40 minutes at room temperature) was no more than 0.1 µM in each case. In addition, in assay [3], the GI50 was no more than 1 µM.

As to `Cc1cc(Nc2cc(NC3CCOCC3)nc(-c3cccc(-c4ccccc4)c3)n2)n[nH]1` [Example 159, 2-(biphenyl-3-yl)-N^4-(5-methyl-1H-pyrazol-3-yl)-N^6-(tetrahydro-2H-pyran-4-yl)pyrimidine-4,6-diamine], the figures for the IC50 in assay [1], in assay [2] (setting [4]) and in assay [3] were no more than 0.1 µM, no more than 1 µM and 1 to 10 µM, respectively.

Take `Cc1cc(Nc2cc(N3CCN(C)CC3)nc(-c3ccc(F)c(F)c3)n2)n[nH]1` [Example 168, 2-(3,4-difluorophenyl)-N-(5-methyl-1H-pyrazol-3-yl)-6-(4-methylpiperazin-1-yl)pyrimidin-4-amine]: the figures for the IC50 in assay [1] and in assay [2] (setting [4]) were no more than 0.1 µM and no more than 1 µM, respectively. Further, the GI50 in assay [3] is no more than 1 µM.

For `Cc1cc(Nc2cc(N3CCN(C)CC3)nc(-c3cccc4ccoc34)n2)n[nH]1` [Example 203, 2-(benzofuran-7-yl)-N-(5-methyl-1H-pyrazol-3-yl)-6-(4-methylpiperazin-1-yl)pyrimidin-4-amine], the figures for the IC50 in assay [1], in assay [2] (40 minutes at room temperature) and in assay [3] were no more than 0.1 µM, no more than 0.1 µM and 1 to 10 µM, respectively.

Take `Cc1cc(Nc2cc(NC3CCOCC3)nc(-c3ccc(F)cc3)n2)n[nH]1` [Compound 19, 2-(4-fluorophenyl)-N^4-(5-methyl-1H-pyrazol-3-yl)-N^6-(tetrahydro-2H-pyran-4-yl)pyrimidine-4,6-diamine]: the IC50 in assay [1] was no more than 0.1 µM; in assay [2] (setting [4]) it was no more than 1 µM; in assay [3], 1 to 10 µM.

Regarding `COC(=O)c1cccc(-c2nc(Nc3cc(C)[nH]n3)cc(N3CCN(C)CC3)n2)c1` [Example 166, methyl 3-(4-(5-methyl-1H-pyrazol-3-ylamino)-6-(4-methylpiperazin-1-yl)pyrimidin-2-yl)benzoate], the IC50 in assay [1] and in assay [2] (40 minutes at room temperature) was no more than 0.1 µM throughout. Further, in assay [3], the GI50 was no more than 1 µM.

With `COCCN(C)c1cc(Nc2cc(C)[nH]n2)nc(-c2cccc(Cl)c2)n1` [Compound 62, 2-(3-chlorophenyl)-N^4-(2-methoxyethyl)-N^4-methyl-N^6-(5-methyl-1H-pyrazol-3-yl)pyrimidine-4,6-diamine], the results for the IC50 in assay [1], in assay [2] (setting [4]) and in assay [3] were no more than 0.1 µM, no more than 1 µM and 1 to 10 µM, respectively.

Source of the values: US20090029992A1, “SUBSTITUTED PYRAZOLE COMPOUNDS” (priority 2007, published 2009).
